{"source": "patent US8017584B2", "about": "“GD3-mimetic peptides” (Otsuka Pharmaceutical Co., Ltd., priority 2000, dated 2011)", "key": {"GD3 antibody 4F6 [1]": {"system": "GD3 antibody 4F6", "test": "ELISA of immobilized phage clones with GD3 antibody 4F6 (Example 2)", "format": "binding, mouse", "conditions": "for absorbance OD450-OD620, binding to GD3 antibody 4F6: phage clone immobilized, duplicate lines", "protocol": "(§1) A 0.1M NaHCO3 solution containing each of the phage clones obtained in Example 1 (10^11, 10^10, or 10^9 titer/100 μL) was added to the wells of a 96-well microtiter plate (product of Nunc), for immobilization of the phage clones at room temperature for one hour. The supernatant was removed, then the wells were subjected to blocking by use of a blocking solution ([…]; TBS containing 1% BSA, 0.1% skim milk, and 0.02% Tween 20; pH 7.5) at 37° C. for four hours.\n(§2) The supernatant was removed, then GD3 antibody 4F6 (100 μL), serving as a primary antibody, was added to each well for reaction under shaking at room temperature for two hours. After completion of reaction, the supernatant was removed, then the wells were washed six times with a washing solution (400 μL for each well, TBS containing 0.05% Tween 20). Subsequently, a secondary antibody (anti-mouse IgG-HRP, product of Santa Cruz Biotechnology, catalogue No. SC-2031, Lot. No. C089) which was diluted 5,000-fold by use of a blocking solution prepared in advance was added to the wells (100 μL to each well) for reaction under shaking at room temperature for one hour. After completion of reaction, the wells were washed four times with a washing solution (400 μL for each well), then a detection reagent (TMB Microwell; product of KPL, Catalogue No. 50-76-04, Lot. No. WF075) was added to the wells (100 μL to each well), and the mixture was allowed to stand for five minutes at room temperature.\n(§3) 1N-Hydrochloric acid (100 μL) was added to each well for stopping the reaction. Absorbance of each well was measured at 450 nm and 620 nm, and “OD450-OD620” was calculated. A Multiscan (product of Labosystems) was used in measurement of absorbance. A well in which phages had not been immobilized served as a blank, and the absorbance of each well was determined by subtracting the blank value from the “as-measured” value."}, "GD3 antibody 4F6 [2]": {"system": "GD3 antibody 4F6", "test": "ELISA of immobilized MAP-form GD3-mimetic peptides with anti-GD3 antibody (Example 3(3))", "format": "binding, mouse", "conditions": "for ELISA absorbance, Anti-GD3 antibody: MAP form 100 ng/well", "protocol": "as §1, §2, §3\n(§4) A 0.1M NaHCO3 solution containing a GD3-mimetic peptide of the invention in the above MAP form (100 ng/100 μL) was added to the wells of a 96-well micro-titer plate, for immobilization at room temperature for one hour. Subsequently, in a manner similar to the ELISA method employed in Example 2, binding affinity of the GD3-mimetic peptide to GD3 antibody 4F6 was investigated.\n(§5) Anti-GD2 antibody and anti-OAcGD3 antibody (Cerato, E., et al., Hybridoma, 16(4), 307-316 (1997)) were used as controls (these antibodies were kindly provided by from Dr. Portoukalian)."}, "Anti-GD2 antibody": {"system": "Anti-GD2 antibody", "test": "ELISA of immobilized MAP-form peptides with control anti-GD2 antibody", "format": "binding", "conditions": "MAP form 100 ng/well", "protocol": "as §4, §5"}, "Anti-OAcGD3 antibody": {"system": "Anti-OAcGD3 antibody", "test": "ELISA of immobilized MAP-form peptides with control anti-OAcGD3 antibody", "format": "binding", "conditions": "MAP form 100 ng/well", "protocol": "as §4, §5"}, "[3]": {"system": "T-cell-rich lymphocytes / IL-2-dependent CTLL2 cells", "test": "Cell response test: IL-2 activity (3H thymidine up-take of CTLL2 cells) in supernatant of spleen cells of mice immunized with GD3", "format": "cell-based, mouse", "conditions": "for 3H Thymidine up-take into CTLL2 cells, mean ± SE (4 wells): mice immunized with GD3", "protocol": "Similar to the case of immunization with R4-KLH, antiserum samples were also prepared through immunization with GD3 (30 μg).\n(§6) The spleen aseptically removed from each of the above-immunized mice was minced in a 10% FCS-supplemented RPMI 1640 medium. By use of a nylon wool column, T-cell-rich lymphocytes were prepared and the cells were counted. The above medium containing the cells in an amount of 10^5 cells per 150 μL was added to each of the wells of a culture plate. PHA was added so as to attain a final concentration of 1 μg/mL. A peptide of the present invention or any of different gangliosides in PBS was added, and the mixture was incubated for 96 hours. A supernatant (100 μL) was obtained from each well. The IL-2 activity of the supernatant was determined through use of IL-2-dependent mouse cells, CTLL2. Briefly, the supernatant (100 μL) diluted 2 to 50-fold with a medium was added to the wells in an amount of 10^4 CTLL2 cells/well, followed by incubation at 37° C. for 48 hours. Subsequently, 3H-thymidine (0.5 μCi) was added to each well, followed by incubation for 6 hours. CTLL2 cells were recovered on a paper filter and counted for 3H."}, "[4]": {"system": "T-cell-rich lymphocytes / IL-2-dependent CTLL2 cells", "test": "Cell response test: IL-2 activity (3H thymidine up-take of CTLL2 cells) in supernatant of spleen cells of mice immunized with R4 peptide (R4-KLH)", "format": "cell-based, mouse", "conditions": "for 3H Thymidine up-take into CTLL2 cells, mean ± SE (4 wells): mice immunized with R4 peptide", "protocol": "Using a fusion peptide R4-KLH obtained in Example 3 (4) between GD3R4 and KLH or a MAP form fusion peptide R4MAP-KLH created between GD3R4 and KLH, immunization was performed as described in (1) above.\nBriefly, an emulsion mixed with an adjuvant (1:1, by volume) was administered to each member of groups of mice, each group consisting of 3 mice (CD-1), in an amount of 100 μL/mouse (for one administration (ip), peptide 30 μg/mouse) for immunization. In the case of R4-KLH, administration was performed every one week for one month, and subsequently every two weeks for one month; and in the case of R4MAP-KLH, every one week for 2 months. In any case, 4 days after the final immunization, blood was collected to thereby prepare antiserum samples.\nas §6"}, "[5]": {"conditions": "stimulant 1 μg/ml, supernatant dilution 1/20"}, "[6]": {"conditions": "stimulant 1 μg/ml, supernatant dilution 1/50"}, "[7]": {"conditions": "stimulant 1 μg/ml, supernatant dilution ½"}, "[8]": {"conditions": "stimulant 1 μg/ml, supernatant dilution ⅕"}, "[9]": {"conditions": "stimulant 2 μg/ml, supernatant dilution 1/20"}, "[10]": {"conditions": "stimulant 2 μg/ml, supernatant dilution 1/50"}, "[11]": {"conditions": "stimulant 2 μg/ml, supernatant dilution ½"}, "[12]": {"conditions": "stimulant 2 μg/ml, supernatant dilution ⅕"}, "[13]": {"conditions": "stimulant 5 μg/ml, supernatant dilution 1/20"}, "[14]": {"conditions": "stimulant 5 μg/ml, supernatant dilution 1/50"}, "[15]": {"conditions": "stimulant 5 μg/ml, supernatant dilution ½"}, "[16]": {"conditions": "stimulant 5 μg/ml, supernatant dilution ⅕"}}, "note": "Values joined by “and” are separate entries in the source; they are usually repeats but may differ in a detail not shown here. Identical values can stand only once.", "data": [{"sequence": "RHAYRSMAEWGFLYS (RHAYRSMAQWGFLYS) [GD3R4, tested as phage clone, MAP form or peptide]", "values": [{"measurement": "absorbance OD450-OD620, binding to GD3 antibody 4F6", "setting": "GD3 antibody 4F6 [1]; 10^9 titer/well", "value": "0.109 and 0.116"}, {"measurement": "absorbance OD450-OD620, binding to GD3 antibody 4F6", "setting": "GD3 antibody 4F6 [1]; 10^10 titer/well", "value": "0.14 and 0.102"}, {"measurement": "absorbance OD450-OD620, binding to GD3 antibody 4F6", "setting": "GD3 antibody 4F6 [1]; 10^11 titer/well", "value": "0.386 and 0.315"}, {"measurement": "binding affinity to GD3 antibody 4F6 (words, FIG. 1)", "setting": "GD3 antibody 4F6 [1]; phage clones", "value": "strongest binding affinity"}, {"measurement": "binding to the anti-GD3 antibody", "setting": "GD3 antibody 4F6 [2]", "value": "stronger bonding to the anti-GD3 antibody"}, {"measurement": "ELISA absorbance, Anti-GD3 antibody", "setting": "GD3 antibody 4F6 [2]; Serum % 12.50%", "value": 0.144}, {"measurement": "ELISA absorbance, Anti-GD3 antibody", "setting": "GD3 antibody 4F6 [2]; Serum % 25%", "value": 0.229}, {"measurement": "ELISA absorbance, Anti-GD3 antibody", "setting": "GD3 antibody 4F6 [2]; Serum % 50%", "value": 0.309}, {"measurement": "ELISA absorbance, Anti-GD3 antibody", "setting": "GD3 antibody 4F6 [2]; Serum % 100%", "value": 0.381}, {"measurement": "ELISA absorbance, Anti-GD2 antibody", "setting": "Anti-GD2 antibody; Serum % 12.50%", "value": 0.061}, {"measurement": "ELISA absorbance, Anti-GD2 antibody", "setting": "Anti-GD2 antibody; Serum % 25%", "value": 0.072}, {"measurement": "ELISA absorbance, Anti-GD2 antibody", "setting": "Anti-GD2 antibody; Serum % 50%", "value": 0.103}, {"measurement": "ELISA absorbance, Anti-GD2 antibody", "setting": "Anti-GD2 antibody; Serum % 100%", "value": 0.149}, {"measurement": "ELISA absorbance, Anti-OAcGD3 antibody", "setting": "Anti-OAcGD3 antibody; Serum % 12.50%", "value": 0.045}, {"measurement": "ELISA absorbance, Anti-OAcGD3 antibody", "setting": "Anti-OAcGD3 antibody; Serum % 25%", "value": 0.043}, {"measurement": "ELISA absorbance, Anti-OAcGD3 antibody", "setting": "Anti-OAcGD3 antibody; Serum % 50%", "value": 0.047}, {"measurement": "ELISA absorbance, Anti-OAcGD3 antibody", "setting": "Anti-OAcGD3 antibody; Serum % 100%", "value": 0.061}, {"measurement": "IL-2 production by T-cell-rich lymphocytes", "setting": "[3]; lymphocytes from GD3-immunized mouse", "value": "production of IL-2 has been confirmed"}, {"measurement": "3H Thymidine up-take into CTLL2 cells, mean ± SE (4 wells)", "setting": "[3]; [5]", "value": "1994 ± 348"}, {"measurement": "3H Thymidine up-take into CTLL2 cells, mean ± SE (4 wells)", "setting": "[3]; [6]", "value": "881 ± 127"}, {"measurement": "3H Thymidine up-take into CTLL2 cells, mean ± SE (4 wells)", "setting": "[3]; [7]", "value": "5867 ± 1213"}, {"measurement": "3H Thymidine up-take into CTLL2 cells, mean ± SE (4 wells)", "setting": "[3]; [8]", "value": "3418 ± 749"}, {"measurement": "3H Thymidine up-take into CTLL2 cells, mean ± SE (4 wells)", "setting": "[3]; [9]", "value": "3248 ± 613"}, {"measurement": "3H Thymidine up-take into CTLL2 cells, mean ± SE (4 wells)", "setting": "[3]; [10]", "value": "1274 ± 156"}, {"measurement": "3H Thymidine up-take into CTLL2 cells, mean ± SE (4 wells)", "setting": "[3]; [11]", "value": "12671 ± 1643"}, {"measurement": "3H Thymidine up-take into CTLL2 cells, mean ± SE (4 wells)", "setting": "[3]; [12]", "value": "8349 ± 1014"}, {"measurement": "3H Thymidine up-take into CTLL2 cells, mean ± SE (4 wells)", "setting": "[3]; [13]", "value": "7526 ± 839"}, {"measurement": "3H Thymidine up-take into CTLL2 cells, mean ± SE (4 wells)", "setting": "[3]; [14]", "value": "2684 ± 387"}, {"measurement": "3H Thymidine up-take into CTLL2 cells, mean ± SE (4 wells)", "setting": "[3]; [15]", "value": "14237 ± 1884"}, {"measurement": "3H Thymidine up-take into CTLL2 cells, mean ± SE (4 wells)", "setting": "[3]; [16]", "value": "11358 ± 1563"}, {"measurement": "activation of T cells", "setting": "[4]; R4-KLH-immunized mice", "value": "T cells have been confirmed to have activated"}, {"measurement": "3H Thymidine up-take into CTLL2 cells, mean ± SE (4 wells)", "setting": "[4]; [5]", "value": "2420 ± 561"}, {"measurement": "3H Thymidine up-take into CTLL2 cells, mean ± SE (4 wells)", "setting": "[4]; [6]", "value": "1017 ± 182"}, {"measurement": "3H Thymidine up-take into CTLL2 cells, mean ± SE (4 wells)", "setting": "[4]; [7]", "value": "6781 ± 1549"}, {"measurement": "3H Thymidine up-take into CTLL2 cells, mean ± SE (4 wells)", "setting": "[4]; [8]", "value": "4413 ± 854"}, {"measurement": "3H Thymidine up-take into CTLL2 cells, mean ± SE (4 wells)", "setting": "[4]; [9]", "value": "7934 ± 1031"}, {"measurement": "3H Thymidine up-take into CTLL2 cells, mean ± SE (4 wells)", "setting": "[4]; [10]", "value": "2742 ± 751"}, {"measurement": "3H Thymidine up-take into CTLL2 cells, mean ± SE (4 wells)", "setting": "[4]; [11]", "value": "15383 ± 2194"}, {"measurement": "3H Thymidine up-take into CTLL2 cells, mean ± SE (4 wells)", "setting": "[4]; [12]", "value": "10375 ± 1708"}, {"measurement": "3H Thymidine up-take into CTLL2 cells, mean ± SE (4 wells)", "setting": "[4]; [13]", "value": "8354 ± 957"}, {"measurement": "3H Thymidine up-take into CTLL2 cells, mean ± SE (4 wells)", "setting": "[4]; [14]", "value": "3058 ± 568"}, {"measurement": "3H Thymidine up-take into CTLL2 cells, mean ± SE (4 wells)", "setting": "[4]; [15]", "value": "18692 ± 2310"}, {"measurement": "3H Thymidine up-take into CTLL2 cells, mean ± SE (4 wells)", "setting": "[4]; [16]", "value": "12657 ± 1624"}]}]}
